Measurements published in patent publication US20240041042A1, “1-(PYRIDYL)-5-AZINYLPYRAZOLE DERIVATIVES, AND THEIR USE FOR CONTROL OF UNDESIRED PLANT GROWTH” (Bayer Aktiengesellschaft, priority 2020, published 2024).
Read-outs that look alike come from different tables or passages of the source.

Assays:
Assay type in all cases: in vivo
[1] = system: Oryza sativa (ORYSA); details: crop plant compatibility
How it was run: (§1)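 Test crops were treated 2 to 3 weeks after sowing, once they reached one leaf, by spraying compound in water with 0.5% additive at 600 l/ha. Visual scoring compared them with untreated controls roughly 3 weeks on, and appendices a, b and c denote different doses.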

[2] = system: Alopecurus myosuroides (ALOMY); test: Post-emergence herbicidal action against ALOMY; details: visual rating about 3 weeks after treatment vs untreated controls (100% = plants have died, 0% = like control plants)
How it was run: (§2)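 Post-emergence greenhouse spray, one-leaf stage, 600 l/ha water plus 0.5% additive; WP or EC formulations; application rates 320 g/ha or lower. Visual % damage vs untreated controls at ~3 weeks.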

[3] = system: Setaria viridis (SETVI); test: Post-emergence herbicidal action against SETVI
How it was run: as §2

[4] = system: Verconica persica (VERPE); test: Pre-emergence herbicidal action against VERPE
How it was run: (§3)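 Greenhouse pot trial: seeds sown, soil-covered, sprayed before emergence with compound in water (0.5% additive; 600 l/ha; ≤320 g/ha). Scoring visual, ~3 weeks, 0–100% scale vs untreated.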

[5] = system: Lolium rigidum (LOLRI); test: Pre-emergence herbicidal action against LOLRI
How it was run: as §3

[6] = system: Viola tricolor (VIOTR); test: Pre-emergence herbicidal action against VIOTR
How it was run: as §3

[7] = system: Abutilon theophrasti (ABUTH); test: Post-emergence herbicidal action against ABUTH; details: visual rating about 3 weeks after treatment vs untreated controls (100% = plants have died, 0% = like control plants)
How it was run: as §2

[8] = system: Abutilon theophrasti (ABUTH); test: Pre-emergence herbicidal action against ABUTH; details: Dosage column 320 g/ha (title prints 3200 g/ha); scored visually after about 3 weeks; 100% = plants have died
How it was run: as §3

[9] = system: Alopecurus myosuroides (ALOMY); test: Pre-emergence herbicidal action against ALOMY; details: scored visually after about 3 weeks, 100% = plants have died
How it was run: as §3

[10] = system: Matricaria inodora (MATIN); test: Pre-emergence herbicidal action against MATIN
How it was run: as §3

[11] = system: Setaria viridis (SETVI); test: Pre-emergence herbicidal action against SETVI
How it was run: as §3

[12] = system: Echinochloa crus-galli (ECHCG); test: Post-emergence herbicidal action against ECHCG
How it was run: as §2

[13] = system: Pharbitis purpurea (PHBPU); test: Pre-emergence herbicidal action against PHBPU
How it was run: as §3

[14] = system: Lolium rigidum (LOLRI); test: Post-emergence herbicidal action against LOLRI
How it was run: as §2

[15] = system: Pharbitis purpurea (PHBPU); test: Post-emergence herbicidal action against PHBPU
How it was run: as §2

[16] = system: Avena fatua (AVEFA); test: Pre-emergence herbicidal action against AVEFA; details: 320 g/ha, visual scoring after about 3 weeks vs untreated controls
How it was run: as §3

[17] = system: Avena fatua (AVEFA); test: Post-emergence herbicidal action against AVEFA; details: 320 g/ha, visual rating about 3 weeks after treatment
How it was run: as §2

[18] = system: Polygonum convolvulus (POLCO); test: Pre-emergence herbicidal action against POLCO
How it was run: as §3

[19] = system: Amaranthus retroflexus (AMARE); test: Pre-emergence herbicidal action against AMARE; details: visual scoring after about 3 weeks vs untreated controls
How it was run: as §3

[20] = system: Zea mays (ZEAMX); details: pre-emergence, 80 g/ha, crop plant compatibility, in comparison to untreated controls
How it was run: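 Scoring: visual, % of untreated control, about 3 weeks after a pre-emergence application to the soil surface. Application used WP or EC formulations diluted in water with 0.5% additive at 600 l/ha; dosage levels are marked by suffixes a, b and c.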

[21] = system: Amaranthus retroflexus (AMARE); test: Post-emergence herbicidal action against AMARE
How it was run: as §2

[22] = system: Polygonum convolvulus (POLCO); test: Post-emergence herbicidal action against POLCO
How it was run: as §2

[23] = system: Verconica persica (VERPE); test: Post-emergence herbicidal action against VERPE
How it was run: as §2

[24] = system: Matricaria inodora (MATIN); test: Post-emergence herbicidal action against MATIN; details: dosage 320 g/ha
How it was run: as §2

[25] = system: Echinochloa crus-galli (ECHCG); test: Pre-emergence herbicidal action against ECHCG
How it was run: as §3

[26] = system: Digitaria sanguinalis (DIGSA); test: Post-emergence herbicidal action against DIGSA; details: visual rating about 3 weeks after treatment
How it was run: as §2

[27] = system: Viola tricolor (VIOTR); test: Post-emergence herbicidal action against VIOTR
How it was run: as §2

[28] = system: Digitaria sanguinalis (DIGSA); test: Pre-emergence herbicidal action against DIGSA
How it was run: as §3

[29] = system: Zea mays (ZEAMX); details: 20 g/ha, ZEAMX, effect in comparison to untreated controls
How it was run: as §1

[30] = 80 g/ha, effect in comparison to untreated controls
[31] = 80 g/ha, visual rating about 3 weeks after treatment vs untreated controls (100% = plants have died, 0% = like control plants)
[32] = 320 g/ha, visual rating about 3 weeks after treatment
[33] = 80 g/ha, visual scoring after about 3 weeks vs untreated controls

Row | Compound | Post-emergence action against ORYSA in % [1, 30] | Post-emergence action against ALOMY in % ([2]; 80 g/ha) | Post-emergence action against ALOMY in % ([2]; 320 g/ha) | Post-emergence action against SETVI in % ([3]; dosage 320 g/ha) | Pre-emergence action against VERPE in % ([4]; dosage 320 g/ha) | Pre-emergence action against LOLRI in % ([5]; dosage 320 g/ha) | Pre-emergence action against VIOTR in % ([6]; 320 g/ha, Viola tricolor) | Post-emergence action against ABUTH in % ([7]; 80 g/ha) | Pre-emergence action against ABUTH [8] | Pre-emergence action against ALOMY ([9]; 80 g/ha) | Pre-emergence action against ALOMY ([9]; 320 g/ha) | Pre-emergence action against MATIN in % ([10]; dosage 320 g/ha) | Pre-emergence action against SETVI in % ([11]; dosage 320 g/ha) | Post-emergence action against ECHCG in % ([12]; dosage 80 g/ha) | Post-emergence action against ECHCG in % ([12]; dosage 320 g/ha) | Post-emergence action against PHBPU in % ([15]; dosage 80 g/ha) | Pre-emergence action against POLCO in % ([18]; dosage 320 g/ha) | Pre-emergence action against AMARE in % ([19]; 80 g/ha) | Pre-emergence action against AMARE in % ([19]; 320 g/ha) | Pre-emergence action against ECHCG in % ([25]; dosage 320 g/ha) | further results
1 | COC(=O)CCOC(=O)COc1nn(-c2ccccn2)c(-c2ccc(F)nc2)c1Cl [Example I-88] | 0% | 80% | 90% | 80% | 90% | 100% | 90% | 80% | 80% | 80% | 100% | 90% | 100% | 80% | 90% | 80% | 90% | 80% | 100% | 100% | Pre-emergence action against VERPE in % ([4]; dosage 80 g/ha): 80%; Post-emergence action against ABUTH in % ([7]; 320 g/ha): 80%; Pre-emergence action against PHBPU in % ([13]; dosage 320 g/ha): 80%; Post-emergence action against LOLRI in % ([14]; dosage 320 g/ha): 80%; Post-emergence action against PHBPU in % ([15]; dosage 320 g/ha): 80%; Pre-emergence action against AVEFA in % [16]: 90%; Post-emergence action against AVEFA in % [17]: 90%; Pre-emergence action against POLCO in % ([18]; dosage 80 g/ha): 80%; Pre-emergence action against ZEAMX in % [20]: 20%; Post-emergence action against AMARE in % [21, 31]: 80%; Post-emergence action against AMARE in % [21, 32]: 80%; Post-emergence action against POLCO in % ([22]; dosage 80 g/ha): 80%; Post-emergence action against POLCO in % ([22]; dosage 320 g/ha): 80%; Post-emergence action against VERPE in % ([23]; 320 g/ha, VERPE): 80%; Post-emergence action against VERPE in % ([23]; dosage 80 g/ha): 80%; Post-emergence action against MATIN in % [24]: 80%; Pre-emergence action against ECHCG in % ([25]; dosage 80 g/ha): 90%
2 | COC(=O)C(C)COC(=O)COc1nn(-c2ccccn2)c(-c2cncc(F)c2)c1Cl (stereo not shown) [Example I-221] | 20% | 80% | 80% | 90% | 90% | 100% | 90% |  | 80% |  | 90% | 90% | 100% | 80% | 80% | 90% | 90% | 80% | 90% | 100% | Post-emergence action against SETVI in % ([3]; dosage 80 g/ha): 90%; Pre-emergence action against LOLRI in % ([5]; dosage 80 g/ha): 80%; Pre-emergence action against VIOTR in % ([6]; dosage 80 g/ha): 90%; Pre-emergence action against MATIN in % ([10]; dosage 80 g/ha): 90%; Pre-emergence action against SETVI in % ([11]; dosage 80 g/ha): 90%; Post-emergence action against DIGSA in % ([26]; 320 g/ha): 80%; Post-emergence action against VIOTR in % ([27]; 80 g/ha): 80%; Post-emergence action against VIOTR in % ([27]; 320 g/ha): 80%; Pre-emergence action against PHBPU in % ([13]; dosage 80 g/ha): 90%; Pre-emergence action against PHBPU in % ([13]; dosage 320 g/ha): 90%; Post-emergence action against LOLRI in % ([14]; dosage 80 g/ha): 80%; Post-emergence action against LOLRI in % ([14]; dosage 320 g/ha): 90%; Post-emergence action against PHBPU in % ([15]; dosage 320 g/ha): 100%; Post-emergence action against AVEFA in % [17]: 80%; Pre-emergence action against POLCO in % ([18]; dosage 80 g/ha): 80%; Post-emergence action against AMARE in % [21, 31]: 80%; Post-emergence action against AMARE in % [21, 32]: 90%; Pre-emergence action against ECHCG in % ([25]; dosage 80 g/ha): 90%; Pre-emergence action against DIGSA in % [28, 33]: 90%; Pre-emergence action against DIGSA in % ([28]; dosage 320 g/ha): 100%
3 | CCOC(=O)COc1nn(-c2ncccc2F)c(-c2ccc(F)nc2)c1Br [Example I-39] |  | 100% |  |  | 100% | 100% | 100% | 90% | 90% | 100% | 100% | 100% | 100% | 80% |  | 80% | 90% | 100% | 100% | 100% | Post-emergence action against ZEAMX in % (crop plant compatibility) [29]: 0%; Post-emergence action against ORYSA in % ([1]; 20 g/ha, effect vs untreated controls): 0%; Post-emergence action against SETVI in % ([3]; dosage 80 g/ha): 80%; Pre-emergence action against VIOTR in % ([6]; dosage 80 g/ha): 100%; Pre-emergence action against SETVI in % ([11]; dosage 80 g/ha): 100%; Post-emergence action against DIGSA in % ([26]; 80 g/ha): 90%; Post-emergence action against VIOTR in % ([27]; 80 g/ha): 80%; Pre-emergence action against AVEFA in % [16]: 90%; Post-emergence action against POLCO in % ([22]; dosage 80 g/ha): 90%; Post-emergence action against VERPE in % ([23]; dosage 80 g/ha): 80%; Pre-emergence action against DIGSA in % [28, 33]: 100%; Pre-emergence action against DIGSA in % ([28]; dosage 320 g/ha): 100%
